Reference: PubChem BioAssay (NCI)
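Values below derive from 48-hour exposures of cells grown in 96-well plates, with endpoints linearly interpolated between the two concentrations bracketing the appropriate inhibition level. TGI: total growth inhibition.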

Experiments:
Experiment in all cases: inhibition of tumour cell growth, NCI panel, 48 h
BT-549 breast = test system: BT-549 breast
DU-145 prostate = test system: DU-145 prostate
EKVX NSCLC = test system: EKVX NSCLC
HCC-2998 colon = test system: HCC-2998 colon
K-562 leukemia = test system: K-562 leukemia
NCI-H23 lung = test system: NCI-H23 lung
OVCAR-3 ovarian = test system: OVCAR-3 ovarian
SF-268 CNS = test system: SF-268 CNS
SK-MEL-28 melanoma = test system: SK-MEL-28 melanoma
SNB-75 CNS = test system: SNB-75 CNS
SW-620 colon = test system: SW-620 colon
U251 CNS = test system: U251 CNS
UO-31 renal = test system: UO-31 renal
SR leukemia = test system: SR leukemia

Row | SMILES | TGI (BT-549 breast) | TGI (DU-145 prostate) | TGI (EKVX NSCLC) | TGI (HCC-2998 colon) | TGI (K-562 leukemia) | TGI (NCI-H23 lung) | TGI (OVCAR-3 ovarian) | TGI (SF-268 CNS) | TGI (SK-MEL-28 melanoma) | TGI (SNB-75 CNS) | TGI (SW-620 colon) | TGI (U251 CNS) | TGI (UO-31 renal) | TGI (SR leukemia)
1 | COC(=O)c1ccccc1C1CN=NC12Cc1c(C)cc(C)cc1C2=O (stereo not drawn) | > 100 µM | > 100 µM | > 100 µM | > 100 µM | > 100 µM | > 100 µM | > 100 µM | > 100 µM | > 100 µM | > 100 µM | > 100 µM | > 100 µM | > 100 µM | –
2 | CC(=O)N1NC(c2ccccc2)=CC(=O)/C1=C/C(=O)c1ccccc1 | – | > 100 µM | > 100 µM | > 100 µM | > 100 µM | > 100 µM | > 100 µM | 99.3 µM | > 100 µM | – | – | > 100 µM | > 100 µM | 57.8 µM
3 | COC(=O)/C=C\c1ccc2c(c1)CC1(C2)Cc2ccc(/C=C/C(=O)OC)cc2C1 (stereo not drawn) | – | > 100 µM | > 31.6 µM | > 31.6 µM | > 31.6 µM | > 31.6 µM | > 31.6 µM | > 100 µM | > 100 µM | > 100 µM | > 100 µM | > 31.6 µM | > 31.6 µM | > 31.6 µM
4 | CC1=C(C)SC(=C2Sc3c(n(C)c(=O)[nH]c3=O)S2)S1 | > 100 µM | > 100 µM | > 100 µM | > 100 µM | > 100 µM | > 100 µM | > 100 µM | > 100 µM | > 100 µM | > 100 µM | > 100 µM | > 100 µM | > 100 µM | –
5 | CCOC(=O)/C(C#N)=C(/NS(=O)(=O)c1cc(C)c(Cl)cc1[S-])[n+]1ccc(N(C)C)cc1 | > 100 µM | > 100 µM | > 100 µM | > 100 µM | > 100 µM | > 100 µM | > 100 µM | > 100 µM | > 100 µM | – | – | > 100 µM | > 100 µM | > 100 µM
6 | CCOC(=O)Cn1c(=O)c2nc(SC)sc2n(-c2ccc(C)cc2)c1=S | – | > 100 µM | > 100 µM | > 100 µM | > 100 µM | > 89.5 µM | > 100 µM | > 89.2 µM | > 100 µM | 44.2 µM | > 100 µM | 71.6 µM | > 100 µM | > 100 µM
7 | CC(=O)OCc1nc(C#N)c(N)o1 | > 100 µM | > 100 µM | > 100 µM | > 100 µM | > 100 µM | > 100 µM | > 100 µM | > 100 µM | > 100 µM | – | > 100 µM | > 100 µM | > 100 µM | > 100 µM
8 | Cc1cc(S(=O)(=O)Nc2nc(N)n(-c3cnc4ccccc4n3)n2)c(S)cc1Cl | > 100 µM | > 100 µM | > 100 µM | > 100 µM | > 100 µM | – | > 100 µM | > 100 µM | > 100 µM | > 100 µM | > 100 µM | > 100 µM | > 100 µM | –
9 | O=C(Sc1c(-c2ccccc2)c(=O)n(-c2ccccc2)c(=S)n1-c1ccccc1)c1ccc(Cl)cc1 | – | > 100 µM | > 100 µM | > 100 µM | > 100 µM | > 100 µM | > 100 µM | > 100 µM | > 100 µM | > 100 µM | > 100 µM | > 100 µM | – | > 100 µM
10 | COc1ccc(C)c2c1N[C@](C)([C@]1(C)Nc3c(OC)ccc(C)c3C1=O)C2=O | > 100 µM | > 100 µM | > 100 µM | > 100 µM | > 100 µM | > 100 µM | > 100 µM | > 100 µM | > 100 µM | – | > 100 µM | > 100 µM | > 100 µM | > 100 µM
11 | O=C(O)c1ccc(Nc2ccnc3cc(Cl)ccc23)cc1O | > 100 µM | > 100 µM | > 100 µM | > 100 µM | > 100 µM | > 100 µM | > 100 µM | > 100 µM | > 100 µM | > 100 µM | > 100 µM | > 100 µM | > 100 µM | –
12 | Cc1ccc(S(=O)(=O)Nn2c(-c3ccccc3)c(C#N)c(-c3ccc(Cl)cc3)c(C#N)c2=O)cc1 | 61.2 µM | – | – | > 100 µM | > 100 µM | – | – | – | 78.5 µM | – | > 100 µM | 55.1 µM | – | –
13 | CCSC(=Nc1ccccc1)SC | – | – | > 100 µM | > 100 µM | > 100 µM | > 100 µM | > 100 µM | > 100 µM | > 100 µM | > 100 µM | > 100 µM | > 100 µM | > 100 µM | –
14 | CN(CCc1ccc(Br)cc1)CCN1CCCCC1 | 96.1 µM | > 100 µM | > 100 µM | > 100 µM | 41.5 µM | > 100 µM | > 100 µM | > 100 µM | 52.1 µM | 85.4 µM | > 100 µM | > 100 µM | > 100 µM | –
15 | COc1ccccc1C1C2=C(COC2=O)OC(C)(C)Oc2cc3c(cc21)OCO3 (stereo not drawn) | – | > 100 µM | 26.7 µM | > 100 µM | 12.8 µM | > 59.2 µM | 13.3 µM | 98.1 µM | 72.1 µM | 8.42 µM | > 49.8 µM | > 89.3 µM | > 100 µM | > 100 µM
16 | CCCCCCCCCCCCCCCCOP(=O)(O)OP(=O)(O)OCC1OC(n2ccc(N)nc2=O)CC1O (stereo not drawn) | > 100 µM | – | > 100 µM | > 100 µM | > 100 µM | > 100 µM | > 100 µM | > 100 µM | > 100 µM | > 100 µM | > 100 µM | > 100 µM | > 100 µM | –
17 | COC(=O)c1cc(Br)c(C(=O)C(Cl)(Cl)Cl)[nH]1 | > 100 µM | > 100 µM | > 100 µM | – | > 100 µM | > 100 µM | > 100 µM | > 100 µM | > 100 µM | > 100 µM | > 100 µM | > 100 µM | > 100 µM | –
18 | CCCCCCNC(=O)c1cc(NCc2cc(OC)ccc2OC)ccc1O | 33.4 µM | > 100 µM | 63.1 µM | 68.4 µM | 47.3 µM | 80.6 µM | 7.05 µM | 32.3 µM | > 100 µM | 76.3 µM | > 100 µM | 41.1 µM | 53.1 µM | –
